In patent publication US7645759B2, “Non-peptide bradykinin antagonists and pharmaceutical compositions therefrom” (Istituto Luso Farmaco D'Italia S.p.A., priority 2004, dated 2010):
Counter-ions that a name gives are not always drawn. Like-named read-outs stand apart in the source and are kept apart here.

Tests used:
B2 human receptor [1] = target: T1, B2 human receptor (Homo sapiens, UniProt P30411); experiment: Binding to the human B2 receptor expressed in CHO cells
T1 construct: expressed in transfected cells; host or cells: CHO cells
T1 sequence (P30411 1-391): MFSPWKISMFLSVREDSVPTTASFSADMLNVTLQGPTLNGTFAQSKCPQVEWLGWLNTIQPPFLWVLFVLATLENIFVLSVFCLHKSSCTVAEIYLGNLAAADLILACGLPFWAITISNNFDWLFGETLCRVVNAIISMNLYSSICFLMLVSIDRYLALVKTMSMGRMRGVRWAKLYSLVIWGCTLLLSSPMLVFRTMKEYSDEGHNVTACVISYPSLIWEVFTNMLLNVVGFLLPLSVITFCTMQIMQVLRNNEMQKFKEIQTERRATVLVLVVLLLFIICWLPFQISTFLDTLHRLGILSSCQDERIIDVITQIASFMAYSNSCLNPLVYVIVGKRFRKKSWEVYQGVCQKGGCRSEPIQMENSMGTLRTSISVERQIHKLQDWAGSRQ

B2 human receptor [2] = target: T1, B2 human receptor; experiment: cell-based
BK-induced bronchospasm = experiment: Inhibition of BK-induced bronchospasm in the guinea pig; assay type: in vivo; settings: intratracheal dose which inhibited by 80% bronchial constriction for at least 210 min; for ED80: Cavia porcellus, inhaled or nasal, 3.5 h, read-out: it Dose
Description: The in vivo activity of the compounds of the present invention was evaluated as effectiveness in inhibiting BK-induced bronchospasm in the guinea pig (Tramontana, et al., J. Pharmacol. Exp. Therap. 296:1051-1057 (2001)), measuring the it dose (it=intratracheal administration) (in nmols/kg) which inhibited by 80% bronchial constriction for at least 210 min.

[3] = human B2 receptor expressed in CHO cells
[4] = antagonistic activity, bradykinin-induced inositol production, CHO cells transfected with B2 human receptor
[5] = human B2 receptor expressed in CHO cells, read-out: pKi (converted)
[6] = antagonistic activity, bradykinin-induced inositol production, CHO cells transfected with B2 human receptor, read-out: pA2 (converted)

Row | SMILES | pKi (B2 human receptor [1]; [3]) | pA2 (B2 human receptor [2]; [4]) | it Dose (BK-induced bronchospasm) | Ki (B2 human receptor [1]; [5]) | Kb (B2 human receptor [2]; [6]) | ED80 (BK-induced bronchospasm) | Ki (B2 human receptor [1]) | Kb (B2 human receptor [2])
1 | Cc1cc(C)c2cccc(OCc3c(Cl)ccc(S(=O)(=O)NC4(C(=O)N5CCN(C(=O)CCCC[N+](C)(C)C)CC5)CCOCC4)c3Cl)c2n1.O=C([O-])C(F)(F)F [Example 3, [5-(4-{4-[2,4-Dichloro-3-(2,4-dimethyl-quinolin-8-yloxymethyl)-benzene-sulfonylamino]tetrahydropyran-4-carbonyl}piperazin-1-yl)-5-oxo-pentyl]-trimethyl-ammonium trifluoroacetate.] | 10.1 | 9.5 | 100 nmols/kg | – | – | – | – | –
2 | Cc1cc(C)c2cccc(OCc3c(Cl)ccc(S(=O)(=O)NC4(C(=O)N5CCN(C(=O)C(N)CCCCN)CC5)CCCC4)c3Cl)c2n1 (stereo not shown) [WO03103671 ex 63] | – | – | – | 0.794 nM | 1.26 nM | 0.3 µmol/kg | – | –
3 | Cc1cc(C)c2cccc(OCc3c(Cl)ccc(S(=O)(=O)NC4(C(=O)N5CCN(C(=O)[C@@H](N)CCC[N+](C)(C)C)CC5)CCCC4)c3Cl)c2n1 [Example 4, [4-(S)-Amino-5-(4-{1-[2,4-dichloro-3-(2,4-dimethyl-quinolin-8-yloxymethyl)-benzenesulfonylamino]cyclopentanecarbonyl}piperazin-1-yl)-5-oxo-pentyl]-trimethyl-ammonium chloride, dihydrochloride.] | – | – | – | 0.0794 nM | 0.398 nM | 0.1 µmol/kg | – | –
4 | Cc1ccc2cccc(OCc3c(Cl)ccc(S(=O)(=O)NC4(C(=O)N5CCN(C(=O)C(N)CCCNC(=N)N)CC5)CCCC4)c3Cl)c2n1 (stereo not shown) [WO03103671 ex 55] | – | – | – | – | – | 0.3 µmol/kg | 2 nM | 3.98 nM
5 | Cc1ccc2cccc(OCc3c(Cl)ccc(S(=O)(=O)NC4(C(=O)N5CCN(C(=O)C(N)CCCCN(C)C)CC5)CCCC4)c3Cl)c2n1 (stereo not shown) [WO03103671 ex 57] | – | – | – | – | – | 0.3 µmol/kg | 1.58 nM | 5.01 nM
6 | CCN=C(NCC)NCCCC(N)C(=O)N1CCN(C(=O)C2(NS(=O)(=O)c3ccc(Cl)c(COc4cccc5c(C)cc(C)nc45)c3Cl)CCCC2)CC1 (stereo not shown) [WO03103671 ex 44] | – | – | – | – | – | 0.3 µmol/kg | – | 1 nM
7 | Cc1cc(C)c2cccc(OCc3c(Cl)ccc(S(=O)(=O)NC4(C(=O)N5CCN(C(=O)C(N)CCCCN(C)C)CC5)CCCC4)c3Cl)c2n1 (stereo not shown) [WO03103671 ex 59] | – | – | – | 1.58 nM | 1 nM | 0.3 µmol/kg | – | –
8 | Cc1ccc2cccc(OCc3c(Cl)ccc(S(=O)(=O)NC4(C(=O)N5CCN(C(=O)[C@@H](N)CCC[N+](C)(C)C)CC5)CCOCC4)c3Cl)c2n1 [Example 2, (4-(S)-Amino-5-(4-(4-(2,4-dichloro-3-(2-methyl-quinolin-8-yloxymethyl)-benzenesulfonylamino)tetrahydropyran-4-carbonyl)-piperazin-1-yl-)5-oxo-pentyl)-trimethylammonium chloride, hydrochloride] | – | – | – | 0.0631 nM | 0.2 nM | 0.1 µmol/kg | – | –
9 | Cc1cc(C)c2cccc(OCc3c(Cl)ccc(S(=O)(=O)NC4(C(=O)N5CCN(C(=O)C(CCCC[N+](C)(C)C)[N+](C)(C)C)CC5)CCCC4)c3Cl)c2n1 (stereo not shown) [WO03103671 ex 88] | – | – | – | – | – | – | 0.2 nM | 6.31 nM
10 | Cc1cc(C)c2cccc(OCc3c(Cl)ccc(S(=O)(=O)NC4(C(=O)N5CCN(C(=O)[C@@H](N)CCC[N+](C)(C)C)CC5)CCOCC4)c3Cl)c2n1.Cl.Cl.[Cl-] [Example 1, (4-(S)-amino-5-(4-{4-[2,4-dichloro-3-(2,4-dimethyl-quinolin-8-yloxymethyl)-benzenesulfonylamino]tetrahydropyran-4-carbonyl}piperazin-1-yl)-5-oxo-pentyl]trimethyl-ammonium chloride, dihydrochloride] | 10.3 | 10.3 | – | – | – | 0.03 µmol/kg | – | –
